IC50 data for 21 molecules are collected here from US8765741B2, “5,6-dihydro-1H-pyridin-2-one compounds” (Anadys Pharmaceuticals, Inc., priority 2007, dated 2014).

For the first assay, the target named is NS5B polymerase (Hepatitis C virus genotype 1b, UniProt P26663). As to the kind of experiment: biochemical.
Chain of NS5B polymerase (P26663 2420-3010): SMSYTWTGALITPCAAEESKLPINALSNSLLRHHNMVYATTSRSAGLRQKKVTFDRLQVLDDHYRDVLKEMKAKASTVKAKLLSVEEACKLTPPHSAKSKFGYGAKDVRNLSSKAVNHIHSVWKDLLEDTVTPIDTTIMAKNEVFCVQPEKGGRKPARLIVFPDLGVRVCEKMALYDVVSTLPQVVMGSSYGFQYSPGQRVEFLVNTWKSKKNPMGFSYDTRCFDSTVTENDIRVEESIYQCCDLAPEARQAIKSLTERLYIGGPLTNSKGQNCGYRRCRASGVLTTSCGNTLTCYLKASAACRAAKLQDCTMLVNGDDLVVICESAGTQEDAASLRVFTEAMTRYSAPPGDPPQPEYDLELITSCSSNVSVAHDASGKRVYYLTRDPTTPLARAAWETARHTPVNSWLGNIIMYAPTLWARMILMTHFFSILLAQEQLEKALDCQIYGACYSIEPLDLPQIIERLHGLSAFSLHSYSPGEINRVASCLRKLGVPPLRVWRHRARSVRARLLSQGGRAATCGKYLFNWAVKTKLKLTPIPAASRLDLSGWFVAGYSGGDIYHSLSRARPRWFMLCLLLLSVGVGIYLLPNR
Details: not given
As to the method:
Compounds were tested for HCV polymerase inhibition. Assays were performed in a 96-well streptavidin-coated FlashPlate using 20 nM enzyme, 0.5 μCi of [α-^33P]GTP, 0.6 μM GTP, and 250 nM 5′biotinylated oligo (rG13)/poly rC in 20 mM Tris-HCl, pH 7.5, 5 mM MgCl2, 5 mM dithiothreitol, 0.1 g/L bovine serum albumin, and 100 U/mL RNAse inhibitor. The reaction was stopped by aspiration after 75 min at 28° C. and the plate was washed several times. After washing and drying the plate, incorporated radioactivity was counted using a Microbeta scintillation counter. IC50 values were calculated relative to the uninhibited control and inhibition data were fitted to a 4-parameter IC50 equation.
With `CS(=O)(=O)Nc1ccc2c(c1)S(=O)(=O)N=C(C1=C(O)C3C4CCC(C4)C3N(Cc3ccc(F)cc3)C1=O)N2` (racemic) [Example 1, (rac-di-exo)-N-{3-[3-(4-Fluoro-benzyl)-6-hydroxy-4-oxo-3-aza-tricyclo[6.2.1.0^2,7]undec-5-en-5-yl]-1,1-dioxo-1,4-dihydro-1λ^6-benzo[1,2,4]thiadiazin-7-yl}-methanesulfonamide], the IC50 was less than 20 nM.

Staying with this assay, now noted: NS5B polymerase inhibition; 20 nM enzyme, 75 min at 28° C.
In turn, `CS(=O)(=O)Nc1ccc2c(c1)S(=O)(=O)N=C(C1=C(O)C3C4CCC(C4)C3N(Cc3ccc(F)cc3)C1=O)N2` (racemic) [Example 2, (rac-di-endo)-N-{3-[3-(4-Fluoro-benzyl)-6-hydroxy-4-oxo-3-aza-tricyclo[6.2.1.0^2,7]undec-5-en-5-yl]-1,1-dioxo-1,4-dihydro-1λ^6-benzo[1,2,4]thiadiazin-7-yl}-methanesulfonamide] came in with a concentration for half-maximal inhibition (IC50) of less than 20 nM.

The assay is the same for the next values; noted with them: NS5B polymerase inhibition; 20 nM enzyme, 75 min at 28° C.; read-out: IC50.
In the case of `CS(=O)(=O)Nc1ccc2c(c1)S(=O)(=O)N=C(C1=C(O)C3C4CCC(C4)C3N(Cc3ccc(F)cn3)C1=O)N2` (racemic) [Example 3, (rac-di-endo)-N-{3-[3-(5-Fluoro-pyridin-2-ylmethyl)-6-hydroxy-4-oxo-3-aza-tricyclo[6.2.1.0^2,7]undec-5-en-5-yl]-1,1-dioxo-1,4-dihydro-1λ^6-benzo[1,2,4]thiadiazin-7-yl}-methanesulfonamide], the IC50 lay in the range of 100 to 1000 nM.
The same measure, in the same setting: next, `CS(=O)(=O)Nc1ccc2c(c1)S(=O)(=O)N=C(C1=C(O)C3C4CCC(O4)C3N(Cc3ccc(F)cc3)C1=O)N2` (racemic) [Example 8, (rac-di-exo)-N-{3-[3-(4-Fluoro-benzyl)-6-hydroxy-4-oxo-11-oxa-3-aza-tricyclo[6.2.1.0^2,7]undec-5-en-5-yl]-1,1-dioxo-1,4-dihydro-1λ^6-benzo[1,2,4]thiadiazin-7-yl}-methanesulfonamide]: less than 20 nM; `CS(=O)(=O)Nc1ccc2c(c1)S(=O)(=O)N=C(C1=C(O)C3C4C=CC(C4)C3N(Cc3ccc(F)cc3)C1=O)N2` (racemic) [Example 9, (rac-di-exo)-N-{3-[3-(4-Fluoro-benzyl)-6-hydroxy-4-oxo-3-aza-tricyclo[6.2.1.0^2,7]undeca-5,9-dien-5-yl]-1,1-dioxo-1,4-dihydro-1λ^6-benzo[1,2,4]thiadiazin-7-yl}-methanesulfonamide]: 20 to 100 nM.
The same measure, in the same setting: under `CS(=O)(=O)Nc1ccc2c(c1)S(=O)(=O)N=C(C1=C(O)C3C4C=CC(C4)C3N(Cc3ccc(F)cc3)C1=O)N2` (racemic) [Example 10, (rac-di-endo)-N-{3-[3-(4-Fluoro-benzyl)-6-hydroxy-4-oxo-3-aza-tricyclo[6.2.1.0^2,7]undeca-5,9-dien-5-yl]-1,1-dioxo-1,4-dihydro-1λ^6-benzo[1,2,4]thiadiazin-7-yl}-methanesulfonamide] stands 20 to 100 nM.
Same read-out and setting: under `Cc1cc(CN2C(=O)C(C3=NS(=O)(=O)c4cc(NS(C)(=O)=O)ccc4N3)=C(O)C3C4CCC(O4)C32)ccc1F` (racemic) [Example 12, (rac-di-exo)-N-{3-[3-(4-Fluoro-3-methyl-benzyl)-6-hydroxy-4-oxo-11-oxa-3-aza-tricyclo[6.2.1.0^2,7]undec-5-en-5-yl]-1,1-dioxo-1,4-dihydro-1λ^6-benzo[1,2,4]thiadiazin-7-yl}-methanesulfonamide] stands less than 20 nM; under `CC(C)(C)CCN1C(=O)C(C2=NS(=O)(=O)c3cc(NS(C)(=O)=O)ccc3N2)=C(O)C2C3CCC(O3)C21` (racemic) [Example 13, (rac-di-exo)-N-{3-[3-(3,3-Dimethyl-butyl)-6-hydroxy-4-oxo-11-oxa-3-aza-tricyclo[6.2.1.0^2,7]undec-5-en-5-yl]-1,1-dioxo-1,4-dihydro-1λ^6-benzo[1,2,4]thiadiazin-7-yl}-methanesulfonamide], 20 to 100 nM; under `CS(=O)(=O)Nc1ccc2c(c1)S(=O)(=O)N=C(C1=C(O)C3C4CCC(O4)C3N(CCC3CC3)C1=O)N2` (racemic) [Example 23, (rac-di-exo)-N-{3-[3-(2-Cyclopropyl-ethyl)-6-hydroxy-4-oxo-11-oxa-3-aza-tricyclo[6.2.1.0^2,7]undec-5-en-5-yl]-1,1-dioxo-1,4-dihydro-1λ^6-benzo[1,2,4]thiadiazin-7-yl}-methanesulfonamide], less than 20 nM.
Regarding `CC(C)CCN1C(=O)C(C2=NS(=O)(=O)c3cc(NS(C)(=O)=O)ccc3N2)=C(O)C2C3CCC(O3)C21` (racemic) [Example 25, (rac-di-exo)-N-{3-[6-Hydroxy-3-(3-methyl-butyl)-4-oxo-11-oxa-3-aza-tricyclo[6.2.1.0^2,7]undec-5-en-5-yl]-1,1-dioxo-1,4-dihydro-1λ^6-benzo[1,2,4]thiadiazin-7-yl}-methanesulfonamide], the IC50 was less than 20 nM.
Turning to `CC(C)CCN1C(=O)C(C2=NS(=O)(=O)c3cc(NS(C)(=O)=O)ccc3N2)=C(O)C2C3C=CC(C3)C21` (racemic) [Example 31, (rac-di-exo)-N-{3-[6-Hydroxy-3-(3-methyl-butyl)-4-oxo-3-aza-tricyclo[6.2.1.0^2,7]undeca-5,9-dien-5-yl]-1,1-dioxo-1,4-dihydro-1λ^6-benzo[1,2,4]thiadiazin-7-yl}-methanesulfonamide], the IC50 lay within 20 to 100 nM.
Same read-out and setting: under `CC(C)(C)CCN1C(=O)C(C2=NS(=O)(=O)c3cc(NS(C)(=O)=O)ccc3N2)=C(O)C2C3C=CC(C3)C21` (racemic) [Example 32, (rac-di-exo)-N-{3-[3-(3,3-Dimethyl-butyl)-6-hydroxy-4-oxo-3-aza-tricyclo[6.2.1.0^2,7]undeca-5,9-dien-5-yl]-1,1-dioxo-1,4-dihydro-1λ^6-benzo[1,2,4]thiadiazin-7-yl}-methanesulfonamide] stands 20 to 100 nM; under `CC(C)CCN1C(=O)C(C2=NS(=O)(=O)c3cc(I)ccc3N2)=C(O)C2C3CCC(O3)C21` (racemic) [Example 33, (rac-di-exo)-6-Hydroxy-5-(7-iodo-1,1-dioxo-1,4-dihydro-1λ^6-benzo[1,2,4]thiadiazin-3-yl)-3-(3-methyl-butyl)-11-oxa-3-aza-tricyclo[6.2.1.0^2,7]undec-5-en-4-one], 1000 to 100000 nM.
`CC(C)(C)CCN1C(=O)C(C2=CS(=O)(=O)c3cc(NS(C)(=O)=O)ccc3N2)=C(O)C2C3C=CC(C3)C21` (racemic) [Example 36, (rac-di-exo)-N-{3-[3-(3,3-Dimethyl-butyl)-6-hydroxy-4-oxo-3-aza-tricyclo[6.2.1.0^2,7]undeca-5,9-dien-5-yl]-1,1-dioxo-1,4-dihydro-1λ^6-benzo[1,4]thiazin-7-yl}-methanesulfonamide]: the IC50 lay within 20 to 100 nM.
Take `CS(=O)(=O)Nc1ccc2c(c1)S(=O)(=O)C=C(C1=C(O)C3C4C=CC(C4)C3N(Cc3ccc(F)cc3)C1=O)N2` (racemic) [Example 37, (rac-di-exo)-N-{3-[3-(4-Fluoro-benzyl)-6-hydroxy-4-oxo-3-aza-tricyclo[6.2.1.0^2,7]undeca-5,9-dien-5-yl]-1,1-dioxo-1,4-dihydro-1λ^6-benzo[1,4]thiazin-7-yl}-methanesulfonamide]: the IC50 is less than 20 nM.
Turning to `CC(C)CCN1C(=O)C(C2=CS(=O)(=O)c3cc(NS(C)(=O)=O)ccc3N2)=C(O)C2C3C=CC(C3)C21` (racemic) [Example 38, (rac-di-exo)-N-{3-[6-Hydroxy-3-(3-methyl-butyl)-4-oxo-3-aza-tricyclo[6.2.1.0^2,7]undeca-5,9-dien-5-yl]-1,1-dioxo-1,4-dihydro-1λ^6-benzo[1,4]thiazin-7-yl}-methanesulfonamide], the 50% inhibitory concentration (IC50) was in the range of 20 to 100 nM.
Same read-out and setting: under `CN(c1ccc2c(c1)S(=O)(=O)N=C(C1=C(O)C3C4C=CC(C4)C3N(Cc3ccc(F)cc3)C1=O)N2)S(C)(=O)=O` (racemic) [Example 39, (rac-di-exo)-N-{3-[3-(4-Fluoro-benzyl)-6-hydroxy-4-oxo-3-aza-tricyclo[6.2.1.0^2,7]undeca-5,9-dien-5-yl]-1,1-dioxo-1,4-dihydro-1λ^6-benzo[1,2,4]thiadiazin-7-yl}-N-methyl-methanesulfonamide] stands 1000 to 100000 nM; under `CC(C)CCN1C(=O)C(C2=NS(=O)(=O)c3cc(NS(=O)(=O)C4CC4)ccc3N2)=C(O)C2C3CCC(O3)C21` (racemic) [Example 42, (rac-di-exo)-Cyclopropanesulfonic acid{3-[6-hydroxy-3-(3-methyl-butyl)-4-oxo-11-oxa-3-aza-tricyclo[6.2.1.0^2,7]undec-5-en-5-yl]-1,1-dioxo-1,4-dihydro-1λ^6-benzo[1,2,4]thiadiazin-7-yl}-amide], 20 to 100 nM.
Still for that read-out and setting: under `CC(C)(C)CCN1C(=O)C(C2=NS(=O)(=O)c3cc(NS(=O)(=O)C4CC4)ccc3N2)=C(O)C2C3C=CC(C3)C21` (racemic) [Example 43, (rac-di-exo)-Cyclopropanesulfonic acid{3-[3-(3,3-dimethyl-butyl)-6-hydroxy-4-oxo-3-aza-tricyclo[6.2.1.0^2,7]undeca-5,9-dien-5-yl]-1,1-dioxo-1,4-dihydro-1λ^6-benzo[1,2,4]thiadiazin-7-yl}-amide] stands 20 to 100 nM; under `CC(C)CCN1C(=O)C(C2=NS(=O)(=O)c3cc(NS(=O)(=O)C4CC4)ccc3N2)=C(O)C2C3C=CC(C3)C21` (racemic) [Example 45, (rac-di-exo)-Cyclopropanesulfonic acid{3-[6-hydroxy-3-(3-methyl-butyl)-4-oxo-3-aza-tricyclo[6.2.1.0^2,7]undeca-5,9-dien-5-yl]-1,1-dioxo-1,4-dihydro-1λ^6-benzo[1,2,4]thiadiazin-7-yl}-amide], 20 to 100 nM.
Still for that read-out and setting: under `O=C1C(C2=NS(=O)(=O)c3cc(NS(=O)(=O)C4CC4)ccc3N2)=C(O)C2C3C=CC(C3)C2N1Cc1ccc(F)cc1` (racemic) [Example 46, (rac-di-exo)-Cyclopropanesulfonic acid{3-[3-(4-fluoro-benzyl)-6-hydroxy-4-oxo-3-aza-tricyclo[6.2.1.0^2,7]undeca-5,9-dien-5-yl]-1,1-dioxo-1,4-dihydro-1λ^6-benzo[1,2,4]thiadiazin-7-yl}-amide] stands less than 20 nM.

One may read the IC50 as the concentration that gives 50% inhibition.
